Where “and” joins values, the source holds several entries; their conditions need not be identical. Equal values may be shown once. Read-outs that look alike come from different tables or passages of the source.
Experiments:
[1] = system: tobacco callus Nicotiana tabacum L. cv. Wisconsin 38; assay: Cytokinin-dependent tobacco callus growth; format: cell-based; conditions: fresh callus weight at the concentration with highest activity
Method: Cytokinin-dependent tobacco callus Nicotiana tabacum L. cv. Wisconsin 38 was maintained at 25° C. in darkness on modified Murashige-Skoog medium, containing per 1 liter: 4 μmol nicotinic acid, 2.4 μmol pyridoxine hydrochloride, 1.2 μmol thiamine, 26.6 μmol glycine, 1.37 μmol glutamine, 1.8 μmol myo-inositol, 30 g of sucrose, 8 g of agar, 5.37 μmol α-naphtylacetic acid (NAA) and 0.5 μmol benzylaminopurine (BAP). Subcultivation was carried out every three weeks. Fourteen days before the bioassay, the callus tissue was transferred to the media without 6-benzylaminopurine (BAP). Biological activity was determined from the increase in fresh callus weight after four weeks of cultivation. Five replicates were prepared for each cytokinin concentration and the entire test was repeated twice. From the obtained data, the concentration with highest activity was selected for each compound tested. Relative activity of the compound at this concentration was calculated (Tab. 6). The activity obtained for 10^−4 M 6-benzylaminopurine (BAP) was postulated as 100%. The cytokinins to be tested were dissolved in dimethylsulfoxide (DMSO) and the solution brought up to 10^−3M with distilled water. This stock was further diluted in the respective media used for the biotest to concentrations ranging from 10^−8M to 10^−4M.

B16-F0 melanoma = assay: Calcein AM cytotoxicity, B16-F0; format: cell-based; conditions: Mus musculus, B16F0, 72 h, read-out: IC 50, B16-F0
Excerpt: (§1) One of the parameters used, as the basis for cytotoxicity assays, is the metabolic activity of viable cells. For example, a microtiter assay, which uses the Calcein AM, is now widely used to quantitate cell proliferation and cytotoxicity. For instance, this assay is used in drug screening programs and in chemosensitivity testing. Because only metabolically active cells cleave Calcein AM, these assays detect viable cells exclusively. The quantity of reduced Calcein AM corresponds to the number of vital cells in the culture.
(§2) Human T-lymphoblastic leukemia cell line CEM; promyelocytic HL-60 and monocytic U937 leukemias; breast carcinoma cell lines MCF-7, BT549, MDA-MB-231; glioblastoma U87MG cells; cervical carcinoma cells HELA; sarcoma cells U2OS and Saos2; hepatocellular carcinoma HepG2; mouse fibroblasts NIH3T3; mouse immortalized bone marrow macrophages B2.4 and B10A.4; P388D1 and L1210 leukemia; B16 and B16F10 melanomas were used for routine screening of compounds. The cells were maintained in Nunc/Corning 80 cm^2 plastic tissue culture flasks and cultured in cell culture medium (DMEM with 5 g/l glucose, 2 mM glutamine, 100 U/ml penicillin, 100 μg/ml streptomycin, 10% fetal calf serum and sodium bicarbonate).
(§3) The cell suspensions that were prepared and diluted according to the particular cell type and the expected target cell density (2.500-30.000 cells per well based on cell growth characteristics) were added by pipette (80 μl) into 96/well microtiter plates. Inoculates were allowed a pre-incubation period of 24 hours at 37° C. and 5% CO2 for stabilisation. Four-fold dilutions of the intended test concentration were added at time zero in 20 μl aliquots to the microtiter plate wells. Usually, test compound was evaluated at six 4-fold dilutions. In routine testing, the highest well concentration was 266.7 μM, but it can be the matter of change dependent on the agent. All drug concentrations were examined in duplicates. Incubations of cells with the test compounds lasted for 72 hours at 37° C., in 5% CO2 atmosphere and 100% humidity. At the end of incubation period, the cells were assayed by using the Calcein AM. Ten microliters of the stock solution were pipetted into each well and incubated further for 1 hours. Fluorescence (FD) was measured with the Labsystem FIA Reader Fluoroscan Ascent (UK). The tumour cell survival (GI50) was calculated using the following equitation: TCS═(FDdrug exposed well/mean FDcontrol wells)×100%. The GI50 value, the drug concentration lethal to 50% of the tumour cells, was calculated from the obtained dose response curves (FIG. 1).

[2] = system: Triticum aestivum cv. Hereward leaf tips; assay: Retention of chlorophyll in excised wheat leaf tips; format: in vivo; conditions: chlorophyll retention at the concentration with highest activity
Method: Seeds of winter wheat, Triticum aestivum cv. Hereward, were washed under running water for 24 hours and then sown on vermiculite soaked with Knop's solution. They were placed in the grown chamber at 25° C. with a 16/8 h light period at 50 μmol.m^−2.s^−1. After 7 days, the first leaf was fully developed and the second leaf had started to grow. A tip section of the first leaf, approximately 35 mm long, was removed from 5 seedlings and trimmed slightly to a combined weight of 100 mg. The basal ends of the five leaf tips were placed in the wells of a microtiter polystyrene plate containing 150 μl of a cytokinin solution each. The entire plate was inserted into a plastic box lined with paper tissues soaked in distilled water to prevent leaf sections from drying out. After a 96 h incubation in the dark at 25° C., the leaves were removed and chlorophyll extracted by heating at 80° C. for 10 min in 5 ml of 80% ethanol (v/v). The sample volume was then restored to 5 ml by the addition of 80% ethanol (v/v). The absorbency of the extract was recorded at 665 nm. In addition, chlorophyll extracts from fresh leaves and leaf tips incubated in deionised water were measured. From the obtained data, the concentration with highest activity was selected for each compound tested. Relative activity of the compound at this concentration was calculated (Tab. 6). The activity obtained for 10^−4 M 6-benzylaminopurine (BAP) was postulated as 100%. The values shown are means of five replicates and the whole experiment was repeated twice. The cytokinins to be tested were dissolved in dimethylsulfoxide (DMSO) and the solution brought up to 10^−3M with distilled water. This stock was further diluted in distilled water to concentrations ranging from 10^−8M to 10^−4M.

[3] = system: Amaranthus caudatus cotyledon/hypocotyl explants; assay: Amaranthus bioassay, betacyanin content; format: in vivo; conditions: betacyanin content at the concentration with highest activity
Method: Standard Amaranthus bioassay was performed with several modifications. The seeds of Amaranthus caudatus var. atropurpurea were surface-sterilised in 10% N-chlorobenzenesulfonamide (w/v) for 10 min and washed 5 times in deionized water. They were placed in 14 cm Petri dishes containing paper tissues saturated with deionized water. After 72 h of cultivation at 25° C. in darkness, the roots of the seedlings were cut off. The explants, consisting of two cotyledons and hypocotyls, were placed in 5 cm Petri dishes on two layers of filter paper soaked in 1 ml of incubation medium containing 10 μmol NA2HPO4-KH2PO4, pH 6.8, 5 μmol tyrosine and the cytokinin to be tested. There were 20 explants per dish. The procedure was carried out under a green safe light in a darkroom. After a 48 h of incubation at 25° C. in darkness, betacyanin was extracted by freezing the explants in 4 ml […] acetic acid. The concentration of betacyanin was determined by comparing the absorbance at 537 nm and 620 nm as follows: ΔA=[…] nm-A620 nm. From the obtained data, the concentration with highest activity was selected for each compound tested. Relative activity of the compound at this concentration was calculated (Tab. 6). […] The values shown in table 8 are means of five replicates and the entire test was repeated twice. The cytokinins to be tested were dissolved in dimethylsulfoxide (DMSO) and the solution brought up to 10^-3M with distilled water. This stock was further diluted in the respective media used for the biotest to concentrations ranging from 10^-8M to 10^-4M.

[4] = system: Rosa hybrida (pot rose cultivar) explants; assay: In vitro and post vitro shoot multiplication and rooting of rose; format: in vivo
Method: The aim of this experiment was to test whether the new compounds are of practical use in tissue culture practice. The multiplication rate was investigated and the post vitro effects on rooting were examined. Rosa hybrida (pot rose cultivar) was cultured in 350 ml vessels with a screw on polycarbonate lid. Each culture vessel contained 100 ml autoclaved medium (120° C., 20 min). The cultures were maintained at 23±2° C. under a 16 h photoperiod at 40 μM m^−2 s^−1 PAR. The basal medium (BMR) contained Murashige and Skoog (1962) macroelements, microelements and vitamins, 95 μM NaFeEDTA, 555 μM myo-inositol, 111 mM sucrose, 1.332 mM glycine, 684 μM L-glutamine and 7 g/l agar. This medium was supplemented with 10 μM BA, mT, oMeOBAP or mMeOBAP (compound no. 14 and 15, respectively). The control medium didn't contain any cytokinin. After a culture period of 8 weeks, the number of induced shoots per explant was determined, as well as root number/explant and total root length/explant. The roots were removed and the explants (shoot clusters) were planted in unfertilised peat. After four weeks of acclimatising in a fog unit, root number and root length was determined.

HOS = assay: Calcein AM cytotoxicity, HOS; format: cell-based
Excerpt: as §1, §2, §3

K-562 = assay: Calcein AM cytotoxicity, K-562; format: cell-based; conditions: read-out: IC 50, K-562
Excerpt: as §1
(§4) The cells were maintained in Nunc/Corning 80 cm^2 plastic tissue culture flasks and cultured in cell culture medium (DMEM with 5 g/l glucose, 2 mM glutamine, 100 U/ml penicillin, 100 μg/ml streptomycin, 10% fetal calf serum and sodium bicarbonate).
as §3, with “In routine testing, the highest well concentration was 266.7 μM, but it can be the matter of change dependent on the agent.” left out, “(UK).” for “(UK). The tumour cell survival (GI50) was calculated using the following equitation: TCS═(FDdrug exposed well/mean FDcontrol wells)×100%. The GI50 value, the drug concentration lethal to 50% of the tumour cells, was calculated from the obtained dose response curves (FIG. 1).”

[5] = system: promyelocytic HL-60 leukemia; assay: Calcein AM cytotoxicity, HL60; format: cell-based, human; conditions: read-out: IC 50, HL60
Excerpt: as §1, §4
as §3, with “In routine testing, the highest well concentration was 266.7 μM, but it can be the matter of change dependent on the agent.” left out, “(UK).” for “(UK). The tumour cell survival (GI50) was calculated using the following equitation: TCS═(FDdrug exposed well/mean FDcontrol wells)×100%. The GI50 value, the drug concentration lethal to 50% of the tumour cells, was calculated from the obtained dose response curves (FIG. 1).”

[6] = system: breast carcinoma cell line MCF-7; assay: Calcein AM cytotoxicity, MCF7; format: cell-based, human; conditions: read-out: IC 50, MCF7
Excerpt: as §1, §4
as §3, with “In routine testing, the highest well concentration was 266.7 μM, but it can be the matter of change dependent on the agent.” left out, “(UK).” for “(UK). The tumour cell survival (GI50) was calculated using the following equitation: TCS═(FDdrug exposed well/mean FDcontrol wells)×100%. The GI50 value, the drug concentration lethal to 50% of the tumour cells, was calculated from the obtained dose response curves (FIG. 1).”

[7] = system: T-lymphoblastic leukemia cell line CEM; assay: Calcein AM cytotoxicity, CEM; format: cell-based, human
Excerpt: as §1, §4
as §3, with “In routine testing, the highest well concentration was 266.7 μM, but it can be the matter of change dependent on the agent.” left out, “(UK).” for “(UK). The tumour cell survival (GI50) was calculated using the following equitation: TCS═(FDdrug exposed well/mean FDcontrol wells)×100%. The GI50 value, the drug concentration lethal to 50% of the tumour cells, was calculated from the obtained dose response curves (FIG. 1).”

[8] = Ex vitro, four weeks of acclimatising

SMILES | Activity (%) [10^−4 mol · l^−1 BAP = 100%] [1] | Activity (%) [10^−4 mol · l^−1 BAP = 100%] [2] | activity (%) [10^−5 mol · l^−1 BAP = 100%] [3] | IC50 (HOS; Homo sapiens, HOS, 72 h) | IC50 (K-562; Homo sapiens, K562, 72 h) | other results
Clc1ccccc1CNc1ncnc2nc[nH]c12 [6-(2-chlorobenzylamino)purine] | 93 (±4) % | 116.5 (±6.5) % | 109 (±8) % | – | – | IC50 (B16-F0 melanoma): 16.9 µM
COc1ccccc1CNc1ncnc2nc[nH]c12 [6-(2-methoxybenzylamino)purine] | 79 (±5) % | 269 (±12) % | 77 (±5) % | > 167 µM | – | Root number per plant [4, 8]: 2.5; Total root length per plant [4, 8]: 8.5 cm; Flower number per explant ([4]; In vitro, 10 μM, 8 weeks): 0.29; Number of new shoots per explant ([4]; In vitro, 10 μM, 8 weeks): 1.0; Root number per explant ([4]; In vitro, 10 μM, 8 weeks): 0.0; Total root length per explant ([4]; In vitro, 10 μM, 8 weeks): 0.0 cm
Clc1cccc(CNc2ncnc3nc[nH]c23)c1 [6-(3-chlorobenzylamino)purine] | 94 (±6) % | 82 (±2) % | 96 (±5) % | > 167 µM | > 167 µM | –
Clc1ccc(CNc2ncnc3nc[nH]c23)cc1 [6-(4-chlorobenzylamino)purine] | 64 (±8) % | 64.5 (±13.5) % | 35 (±7) % | > 167 µM | > 167 µM | IC50 ([5]; Homo sapiens, HL-60, 72 h): > 167 µM; IC50 ([6]; Homo sapiens, MCF7, 72 h): > 167 µM; IC50 ([7]; Homo sapiens, 72 h): > 167 µM
Fc1ccc(CNc2ncnc3nc[nH]c23)cc1 [6-(4-fluorobenzylamino)purine] | 122 (±12) % | 95.5 (±3.5) % | 44 (±4) % | > 167 µM | – | –
CC(C)=CCNc1ncnc2nc[nH]c12 [IP, isopentenyladenine, reference compound] | – | – | – | – | – | IC50 ([5]; 72 hours): > 167 µM; IC50 (K-562; 72 hours): 147 µM and 162 µM; IC50 (HOS; 72 hours): > 167 µM; IC50 ([6]; 72 hours): > 167 µM; IC50 ([7]; 72 hours): 92.2 µM
c1coc(CNc2ncnc3[nH]cnc23)c1 [Kinetin, reference compound] | – | – | – | > 167 µM | > 167 µM | IC50 (K-562; Homo sapiens, K562, 72 hours): 164 µM; IC50 ([6]; Homo sapiens, MCF7, 72 h): > 167 µM; IC50 ([7]; Homo sapiens, 72 hours): 155 µM
C/C(=C/CNc1ncnc2nc[nH]c12)CO [cis Z, reference compound] | – | – | – | – | – | IC50 ([5]; 72 hours): > 167 µM; IC50 (HOS; 72 hours): > 167 µM; IC50 ([6]; 72 hours): > 167 µM; IC50 ([7]; 72 hours): > 167 µM
